In patent US10183943B2, “Heterocyclic compounds and their use in preventing or treating bacterial infections” (MUTABILIS, priority 2015, dated 2019):

Assays:
[1] = tested on: E. coli RGN238 (OXA-1); assay: MIC of compounds alone, broth microdilution; assay type: cell-based; conditions: Escherichia coli; strain RGN238 (E. coli); read-out: MIC compounds of the invention alone
Method: (§1) Method 2: MIC of Compounds and Synergy with Ceftazidime Against Bacterial Isolates (Table 2 and 3)
(§2) Compounds of the present invention were assessed against genotyped bacterial strains alone or in combination with the β-lactam ceftazidime (CAZ). In the assays, MICs of said compounds, or of ceftazidime at fixed concentrations of said compounds were determined by the broth microdilution method according to the Clinical Laboratory Standards Institute (CLSI-M7-A7). Briefly, compounds alone according to the invention were prepared in DMSO and spotted (2 μL each) on sterile polystyrene plates (Corning, 3788). Compounds and ceftazidime dilutions were prepared in DMSO and spotted (1 μL each) on sterile polystyrene plates (Corning, 3788). Log phase bacterial suspensions were adjusted to a final density of 5×10^5 cfu/mL in cation-adjusted Mueller-Hinton broth (Becton-Dickinson) and added to each well (98 μL). Microplates were incubated for 16-20 h at 35° C. in ambient air. The MIC of the compounds was defined as the lowest concentration of said compounds that prevented bacterial growth as read by visual inspection. The MIC of ceftazidime at each compound concentration was defined as the lowest concentration of ceftazidime that prevented bacterial growth as read by visual inspection.

[2] = tested on: E. coli 190317 (TEM-1, SHV-12, CTX-M-15, OXA-1); assay: MIC of compounds alone, broth microdilution; assay type: cell-based; conditions: Escherichia coli, read-out: MIC compounds of the invention alone
Method: as §1, §2

[3] = tested on: E. coli 131119 (TEM-1, OXA-48); assay: MIC of compounds alone, broth microdilution; assay type: cell-based; conditions: Escherichia coli; strain 131119 (E. coli); read-out: MIC compounds of the invention alone
Method: as §1, §2

[4] = tested on: E. cloacae P99 (AmpC); assay: MIC of compounds alone, broth microdilution; assay type: cell-based; conditions: Enterobacter cloacae; strain P99 (E. cloacae); read-out: MIC compounds of the invention alone
Method: as §1, §2

[5] = tested on: K. pneumoniae BAA-1898 (TEM-1, SHV-11, SHV-12, KPC-2); assay: MIC of compounds alone, broth microdilution; assay type: cell-based; conditions: Klebsiella pneumoniae, BAA1898; strain BAA-1898 (K. pneumoniae); read-out: MIC compounds of the invention alone
Method: as §1, §2

[6] = tested on: K. pneumoniae 6299 (TEM-1, SHV-11, OXA-163); assay: MIC of compounds alone, broth microdilution; assay type: cell-based; conditions: Klebsiella pneumoniae; strain 6299 (K. pneumoniae); read-out: MIC compounds of the invention alone
Method: as §1, §2

[7] = tested on: P. aeruginosa CIP107051 (TEM-24); assay: MIC of compounds alone, broth microdilution; assay type: cell-based; conditions: Pseudomonas aeruginosa; strain CIP107051 (P. aeruginosa); read-out: MIC compounds of the invention alone
Method: as §1, §2

[8] = molecular target: AmpC (P99) (Enterobacter cloacae, UniProt P05364); assay: β-lactamase inhibitory activity, determination of IC50 (nitrocefin hydrolysis)
AmpC (P99), sequence (P05364 21-381): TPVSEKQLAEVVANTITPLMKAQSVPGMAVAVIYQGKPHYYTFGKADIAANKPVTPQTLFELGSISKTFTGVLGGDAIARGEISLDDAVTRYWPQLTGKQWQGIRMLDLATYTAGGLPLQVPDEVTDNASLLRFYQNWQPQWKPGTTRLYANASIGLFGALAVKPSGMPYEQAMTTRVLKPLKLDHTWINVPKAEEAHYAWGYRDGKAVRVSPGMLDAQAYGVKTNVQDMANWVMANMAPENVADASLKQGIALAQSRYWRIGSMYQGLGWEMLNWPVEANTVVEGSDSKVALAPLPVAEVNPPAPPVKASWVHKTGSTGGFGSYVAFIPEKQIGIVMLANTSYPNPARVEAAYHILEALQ

[9] = molecular target: T1, OXA-11 (Pseudomonas aeruginosa, UniProt Q06778); assay: as above; assay type: biochemical
T1 construct: made in house; host or cells: E. coli
T1 sequence (Q06778 21-266): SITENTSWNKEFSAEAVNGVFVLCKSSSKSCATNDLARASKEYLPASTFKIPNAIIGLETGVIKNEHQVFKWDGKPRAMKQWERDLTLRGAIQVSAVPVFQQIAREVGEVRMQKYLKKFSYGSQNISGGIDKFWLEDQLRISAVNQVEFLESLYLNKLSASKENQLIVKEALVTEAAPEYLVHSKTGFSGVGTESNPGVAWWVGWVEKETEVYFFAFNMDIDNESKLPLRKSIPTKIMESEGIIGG

[10] = molecular target: T2, CTX-M-15 (Escherichia coli, UniProt Q9EXV5); assay: as above; assay type: biochemical; conditions: class (A); nitrocefin 200 μM, 30 min pre-incubation; read-out: IC50 β-lactamase CTX-M-15
T2 construct: made in house; host or cells: E. coli
T2 sequence (Q9EXV5 entry or part of it): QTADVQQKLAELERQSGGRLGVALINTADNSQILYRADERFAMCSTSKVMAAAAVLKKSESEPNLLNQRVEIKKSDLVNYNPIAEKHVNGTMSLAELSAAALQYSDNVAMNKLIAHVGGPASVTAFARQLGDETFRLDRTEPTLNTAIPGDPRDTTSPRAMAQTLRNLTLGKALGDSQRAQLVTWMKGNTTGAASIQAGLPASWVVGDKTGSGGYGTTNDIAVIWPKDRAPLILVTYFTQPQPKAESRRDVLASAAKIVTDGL

[11] = molecular target: T3, TEM-1 (Escherichia coli, UniProt P62593); assay: as above; assay type: biochemical
T3 construct: made in house; host or cells: E. coli
T3 sequence (P62593 24-286 limits assumed): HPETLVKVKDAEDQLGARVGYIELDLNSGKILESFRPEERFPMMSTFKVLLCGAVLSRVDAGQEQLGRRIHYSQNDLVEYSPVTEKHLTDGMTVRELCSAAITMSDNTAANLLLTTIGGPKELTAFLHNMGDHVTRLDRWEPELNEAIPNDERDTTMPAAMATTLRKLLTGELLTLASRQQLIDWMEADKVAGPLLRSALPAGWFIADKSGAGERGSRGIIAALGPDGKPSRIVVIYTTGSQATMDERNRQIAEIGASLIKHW

[12] = molecular target: T4, SHV-1 (Klebsiella pneumoniae, UniProt P0AD64); assay: as above; assay type: biochemical
T4 construct: made in house; host or cells: E. coli
T4 sequence (P0AD64 22-286): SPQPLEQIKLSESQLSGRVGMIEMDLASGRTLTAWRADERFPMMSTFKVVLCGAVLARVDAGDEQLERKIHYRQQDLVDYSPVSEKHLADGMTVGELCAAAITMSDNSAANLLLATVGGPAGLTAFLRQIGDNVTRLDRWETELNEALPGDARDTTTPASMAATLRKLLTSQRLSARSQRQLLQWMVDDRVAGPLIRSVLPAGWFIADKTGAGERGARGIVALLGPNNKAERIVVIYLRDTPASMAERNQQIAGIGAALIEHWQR

[13] = molecular target: AmpC P. aeruginosa (Pseudomonas aeruginosa, UniProt P24735); assay: as above
AmpC P. aeruginosa, sequence (P24735 27-397): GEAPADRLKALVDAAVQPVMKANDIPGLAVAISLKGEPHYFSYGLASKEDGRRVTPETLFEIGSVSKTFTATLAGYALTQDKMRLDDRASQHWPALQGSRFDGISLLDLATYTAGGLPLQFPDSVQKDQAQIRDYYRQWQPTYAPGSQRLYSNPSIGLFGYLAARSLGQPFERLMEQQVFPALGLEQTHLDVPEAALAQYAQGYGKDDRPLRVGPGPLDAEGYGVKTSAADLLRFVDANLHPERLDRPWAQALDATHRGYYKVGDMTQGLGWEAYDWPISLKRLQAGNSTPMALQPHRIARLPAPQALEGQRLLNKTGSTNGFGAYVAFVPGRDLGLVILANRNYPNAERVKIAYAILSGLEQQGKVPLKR

[14] = molecular target: T5, OXA-48 (Klebsiella pneumoniae, UniProt Q6XEC0); assay: as above; assay type: biochemical; conditions: class (D); nitrocefin 200 μM, 30 min pre-incubation; read-out: IC50 β-lactamase OXA-48
T5 construct: made in house; host or cells: E. coli
T5 sequence (Q6XEC0 23-265 limits assumed): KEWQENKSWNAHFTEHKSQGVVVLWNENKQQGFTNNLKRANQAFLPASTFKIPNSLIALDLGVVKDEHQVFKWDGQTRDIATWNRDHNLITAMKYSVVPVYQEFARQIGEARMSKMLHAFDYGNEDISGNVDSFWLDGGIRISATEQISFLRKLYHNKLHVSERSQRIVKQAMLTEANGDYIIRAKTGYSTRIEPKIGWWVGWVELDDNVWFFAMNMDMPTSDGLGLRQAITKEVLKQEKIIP

[15] = molecular target: T6, OXA-1 (Escherichia coli, UniProt P13661); assay: as above; assay type: biochemical; conditions: class (D); nitrocefin 200 μM, 30 min pre-incubation; read-out: IC50 β-lactamase OXA-1
T6 construct: made in house; host or cells: E. coli
T6 sequence (P13661 26-276): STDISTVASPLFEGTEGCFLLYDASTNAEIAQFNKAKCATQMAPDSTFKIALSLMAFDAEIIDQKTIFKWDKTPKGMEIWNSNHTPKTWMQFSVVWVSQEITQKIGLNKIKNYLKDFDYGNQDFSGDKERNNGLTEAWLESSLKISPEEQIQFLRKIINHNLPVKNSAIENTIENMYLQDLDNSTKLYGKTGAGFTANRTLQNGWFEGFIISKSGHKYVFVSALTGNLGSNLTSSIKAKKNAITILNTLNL

[16] = molecular target: T7, KPC-2 (Klebsiella pneumoniae, UniProt Q9F663); assay: as above; assay type: biochemical; conditions: class (A); nitrocefin 200 μM, 30 min pre-incubation; read-out: IC50 β-lactamase KPC-2
T7 construct: made in house; host or cells: E. coli
T7 sequence (Q9F663 25-293 limits assumed): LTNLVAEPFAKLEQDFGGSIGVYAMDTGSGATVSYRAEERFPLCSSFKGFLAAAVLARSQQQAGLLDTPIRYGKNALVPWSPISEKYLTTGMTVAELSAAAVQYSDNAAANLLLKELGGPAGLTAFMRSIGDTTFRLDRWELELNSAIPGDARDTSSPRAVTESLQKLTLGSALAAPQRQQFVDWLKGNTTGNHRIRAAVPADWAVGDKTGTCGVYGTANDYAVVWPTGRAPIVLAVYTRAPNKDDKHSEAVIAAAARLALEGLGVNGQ

[17] = molecular target: T8, OXA-15 (Pseudomonas aeruginosa, UniProt Q51574); assay: biochemical
T8 construct: made in house; host or cells: E. coli
T8 sequence (Q51574 22-275): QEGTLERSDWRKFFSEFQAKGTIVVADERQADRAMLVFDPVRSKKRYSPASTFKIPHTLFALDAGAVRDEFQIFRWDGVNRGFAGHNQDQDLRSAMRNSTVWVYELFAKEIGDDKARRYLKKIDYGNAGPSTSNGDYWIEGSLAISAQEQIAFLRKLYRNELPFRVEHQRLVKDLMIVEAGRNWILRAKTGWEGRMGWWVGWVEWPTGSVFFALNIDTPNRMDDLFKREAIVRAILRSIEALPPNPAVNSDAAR

SMILES	MIC [1] [µg/mL]	MIC [2] [µg/mL]	MIC [3] [µg/mL]	MIC [4] [µg/mL]	MIC [5] [µg/mL]	MIC [6] [µg/mL]	MIC [7] [µg/mL]	IC50 [8] [nM]	IC50 [9] [nM]	IC50 [10] [nM]	IC50 [11] [nM]	IC50 [12] [nM]	IC50 [13] [nM]	IC50 [14] [nM]	IC50 [15] [nM]	IC50 [16] [nM]	IC50 [17] [nM]
O=C1N2CC=C(c3cn[nH]c3)C(C2)N1OS(=O)(=O)[O-].[Na+] (stereo not shown) [Example 1, Sodium (7-oxo-4-pyrazol-4-yl-1,6-diaza-bicyclo[3.2.1]oct-3-en-6-yl) sulfate]	> 32	32	> 32	> 32	> 32	> 32	> 32	6100	2900	26	13	29	9300	8.9	1400	770	590
Cn1nccc1C1=CCN2CC1N(OS(=O)(=O)[O-])C2=O.[Na+] (stereo not shown) [Example 2, Sodium [4-(2-methylpyrazol-3-yl)-7-oxo-1,6-diazabicyclo[3.2.1]oct-3-en-6-yl] sulfate]	> 32	> 32	> 32	> 32	> 32	> 32	> 32	670	910	33	2.7	6.4	960	2.8	64	1200	9.8
O=C1N2CC=C(c3ncco3)C(C2)N1OS(=O)(=O)[O-].[Na+] (stereo not shown) [Example 4, Sodium [4-(oxazol-2-yl)-7-oxo-1,6-diazabicyclo[3.2.1]oct-3-en-6-yl]sulfate]	32	8	16	16	> 32	> 32	> 32	1500	800	7.5	2.9	8.4	940	2.9	260	390	46
O=C1N2CC=C(c3ccncc3)C(C2)N1OS(=O)(=O)[O-].[Na+] (stereo not shown) [Example 7, Sodium [4-(4-pyridyl)-7-oxo-1,6-diazabicyclo[3.2.1]oct-3-en-6-yl]sulfate]	> 32	8	> 32	> 32	> 32	> 32	> 32	1700	2300	13	12	30	2200	4.9	250	150	95
Cn1cc(C2=CCN3CC2N(OS(=O)(=O)[O-])C3=O)ccc1=O.[Na+] (stereo not shown) [Example 8, Sodium [4-(N-methyl-6-oxo-3-pyridyl)-7-oxo-1,6-diazabicyclo[3.2.1]oct-3-en-6-yl] sulfate]	> 32	8	> 32	> 32	> 32	> 32	> 32	1900	1400	12	8.2	19	3300	2.2	690	170	140
